Where a name gives a salt, the structure may show the parent alone.
The molecules below were run against T1, TNIK (Homo sapiens, UniProt Q9UKE5) (assay: ADP-Glo Kinase Assay, inhibition activity on TNIK). Details: read-out: TNIK.
T1 construct: purchased Promega V4158
Assay type: biochemical
Experimental: The inhibition activities on TNIK, IKKε and TBK1 were measured by a luminometer, TNIK/IKKε/TBK1 Kinase Enzyme System (Promega, Ca# V4158; Invitrogen, PR8031B, Promega, Ca# V3991) and ADP-Glo Kinase Assay using ADP-Glo™ Kinase Analysis Kit (Promega, Ca# V9101) and a kinase reaction buffer [40 mM Tris(pH 7.5), 20 mM MgCl2, 0.1 mg/mL BSA] in accordance with the manufacturer's protocol.

T1 sequence (Q9UKE5 1-367 limits assumed): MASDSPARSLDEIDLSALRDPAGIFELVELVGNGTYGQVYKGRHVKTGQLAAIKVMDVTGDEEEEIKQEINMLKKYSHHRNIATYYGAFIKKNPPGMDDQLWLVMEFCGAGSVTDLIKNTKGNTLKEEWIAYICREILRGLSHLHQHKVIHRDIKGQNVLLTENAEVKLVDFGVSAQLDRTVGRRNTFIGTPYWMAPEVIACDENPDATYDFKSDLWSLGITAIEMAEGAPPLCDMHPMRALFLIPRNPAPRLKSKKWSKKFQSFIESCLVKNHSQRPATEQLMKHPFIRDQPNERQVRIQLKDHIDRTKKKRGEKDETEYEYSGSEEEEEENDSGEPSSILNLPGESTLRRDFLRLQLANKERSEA

Row | IC50 | Compound
1 | 440 nM | CN1CCN(CCCNc2ccc(C(=O)Nc3ccc(-c4ccccc4)c4c3C(=O)NC4)cc2)CC1 [Example 329, 4-((3-(4-Methylpiperazin-1-yl)propyl)amino)-N-(3-oxo-7-phenylisoindolin-4-yl)benzamide]
2 | 510 nM | COc1ccccc1-c1ccc(NC(=O)c2ccc(NCCCN3CCN(C)CC3)cc2)c2c1CNC2=O [Example 330, N-(7-(2-methoxyphenyl)-3-oxoisoindolin-4-yl)-4-((3-(4-methylpiperazin-1-yl)propyl)amino)benzamide]
3 | 790 nM | COCCCNc1ccc(C(=O)Nc2ccc(-c3ccccc3)c3c2C(=O)NC3)cc1 [Example 331, 4-((3-Methoxypropyl)amino)-N-(3-oxo-7-phenylisoindolin-4-yl) benzamide]
4 | 510 nM | COCCCNc1ccc(C(=O)Nc2ccc(-c3ccccc3OC)c3c2C(=O)NC3)cc1 [Example 332, N-(7-(2-methoxyphenyl)-3-oxoisoindolin-4-yl)-4-((3-methoxypropyl)amino)benzamide]
5 | 1600 nM | O=C(Nc1ccc(-c2ccccc2)c2c1C(=O)NC2)c1ccc(NCc2cccs2)cc1 [Example 333, N-(3-oxo-7-phenylisoindolin-4-yl)-4-((thiophen-2-ylmethyl)amino)benzamide]
6 | 410 nM | COc1ccccc1-c1ccc(NC(=O)c2ccc(NCc3cccs3)cc2)c2c1CNC2=O [Example 334, N-(7-(2-methoxyphenyl)-3-oxoisoindolin-4-yl)-4-((thiophen-2-ylmethyl)amino)benzamide]
7 | 430 nM | CN(C)CCCNc1ccc(C(=O)Nc2ccc(-c3ccco3)c3c2C(=O)NC3)cc1 [Example 335, 4-((3-(Dimethylamino)propyl)amino)-N-(7-(furan-2-yl)-3-oxoisoindolin-4-yl)benzamide]
8 | 980 nM | COCCCNc1ccc(C(=O)Nc2ccc(-c3ccco3)c3c2C(=O)NC3)cc1 [Example 336, N-(7-(furan-2-yl)-3-oxoisoindolin-4-yl)-4-((3-methoxypropyl)amino)benzamide]
9 | 560 nM | O=C(Nc1ccc(-c2ccco2)c2c1C(=O)NC2)c1ccc(NCCCN2CCOCC2)cc1 [Example 337, N-(7-(furan-2-yl)-3-oxoisoindolin-4-yl)-4-((3-morpholinopropyl)amino)benzamide]
10 | 370 nM | O=C(Nc1ccc(-c2ccco2)c2c1C(=O)NC2)c1ccc(NCCCN2CCCCC2)cc1 [Example 338, N-(7-(furan-2-yl)-3-oxoisoindolin-4-yl)-4-((3-(piperidin-1-yl)propyl)amino)benzamide]
11 | 310 nM | O=C(Nc1ccc(-c2ccco2)c2c1C(=O)NC2)c1ccc(NCCCN2CCCC2)cc1 [Example 339, N-(7-(furan-2-yl)-3-oxoisoindolin-4-yl)-4-((3-(pyrrolidin-1-yl)propyl)amino)benzamide]
12 | 680 nM | NC1CCN(c2ccc(C(=O)Nc3ccc(-c4ccccc4)c4c3C(=O)NC4)cc2)CC1 [Example 340, 4-(4-Aminopiperidin-1-yl)-N-(3-oxo-7-phenylisoindolin-4-yl) benzamide]
13 | 38 nM | CN(C)CCNc1ccc(C(=O)Nc2ccc(-c3cccc4ncoc34)c3c2C(=O)NC3)cc1 [Example 341, N-(7-(benzo[d]oxazol-7-yl)-3-oxoisoindolin-4-yl)-4-((2-(dimethylamino)ethyl)amino)benzamide]
14 | 43 nM | O=C(Nc1ccc(-c2cccc3ncoc23)c2c1C(=O)NC2)c1ccc(NCCN2CCCCC2)cc1 [Example 342, N-(7-(benzo[d]oxazol-7-yl)-3-oxoisoindolin-4-yl)-4-((2-(piperidin-1-yl)ethyl)amino)benzamide]
15 | 42 nM | O=C(Nc1ccc(-c2cccc3ncoc23)c2c1C(=O)NC2)c1ccc(NCCCN2CCCCC2)cc1 [Example 343, N-(7-(benzo[d]oxazol-7-yl)-3-oxoisoindolin-4-yl)-4-((3-(piperidin-1-yl)propyl)amino)benzamide]
16 | 61 nM | O=C(Nc1ccc(-c2cccc3ncoc23)c2c1C(=O)NC2)c1ccc(NCCN2CCCCCC2)cc1 [Example 344, 4-((2-(Azepan-1-yl)ethyl)amino)-N-(7-(benzo[d]oxazol-7-yl)-3-oxoisoindolin-4-yl)benzamide]
17 | 1140 nM | O=C(Nc1ccc(-c2ccccc2)c2c1C(=O)NC2)c1ccc(OCCN2CCOCC2)cc1 [Example 345, 4-(2-Morpholinoethoxy)-N-(3-oxo-7-phenylisoindolin-4-yl) benzamide]
18 | 6170 nM | O=C(Nc1cccc2c1C(=O)NC2)c1ccc(NCCN2CCCC2)cc1 [Example 346, N-(3-oxoisoindolin-4-yl)-4-((2-(pyrrolidin-1-yl)ethyl)amino) benzamide]
19 | 200 nM | COc1cccc(-c2ccc(NC(=O)c3ccc(OCCN4CCOCC4)cc3)c3c2CNC3=O)c1OC [Example 347, N-(7-(2,3-dimethoxyphenyl)-3-oxoisoindolin-4-yl)-4-(2-morpholinoethoxy)benzamide]
20 | 3180 nM | Nc1cccc(-c2ccc(NC(=O)c3ccc(NCCN4CCOCC4)cc3)c3c2CNC3=O)c1O [Example 348, N-(7-(3-amino-2-hydroxyphenyl)-3-oxoisoindolin-4-yl)-4-((2-morpholinoethyl)amino)benzamide]

Row | IC50 | Compound
21 | 240 nM | COc1ccccc1-c1ccc(NC(=O)c2ccc(NCCN3CCCCCC3)cc2)c2c1CNC2=O [Example 349, 4-((2-(Azepan-1-yl)ethyl)amino)-N-(7-(2-methoxyphenyl)-3-oxoisoindolin-4-yl)benzamide]
22 | 61 nM | COc1cccc(-c2ccc(NC(=O)c3ccc(NCCN4CCCCCC4)cc3)c3c2CNC3=O)c1OC [Example 350, 4-((2-(Azepan-1-yl)ethyl)amino)-N-(7-(2,3-dimethoxyphenyl)-3-oxoisoindolin-4-yl)benzamide]
23 | 960 nM | CN(C)CCCNc1ccc(C(=O)Nc2ccc(-c3ccccc3O)c3c2C(=O)NC3)cc1 [Example 351, 4-((3-(Dimethylamino)propyl)amino)-N-(7-(2-hydroxyphenyl)-3-oxoisoindolin-4-yl)benzamide]
24 | 84 nM | COc1ccccc1-c1ccc(NC(=O)c2ccc(NCCO)cc2)c2c1CNC2=O [Example 352, 4-((2-Hydroxyethyl)amino)-N-(7-(2-methoxyphenyl)-3-oxoisoindolin-4-yl)benzamide]
25 | 370 nM | O=C(Nc1ccc(-c2ccccc2O)c2c1C(=O)NC2)c1ccc(NCCO)cc1 [Example 353, 4-((2-Hydroxyethyl)amino)-N-(7-(2-hydroxyphenyl)-3-oxoisoindolin-4-yl)benzamide]
26 | 220 nM | COc1ccccc1-c1ccc(NC(=O)c2ccc(NCCCO)cc2)c2c1CNC2=O [Example 354]
27 | 590 nM | O=C(Nc1ccc(-c2ccccc2O)c2c1C(=O)NC2)c1ccc(NCCCO)cc1 [Example 355]
28 | 250 nM | COc1ccccc1-c1ccc(NC(=O)c2ccc(NCCCCO)cc2)c2c1CNC2=O [Example 356, 4-((4-Hydroxybutyl)amino)-N-(7-(2-methoxyphenyl)-3-oxoisoindolin-4-yl)benzamide]
29 | 640 nM | O=C(Nc1ccc(-c2ccccc2O)c2c1C(=O)NC2)c1ccc(NCCCCO)cc1 [Example 357, 4-((4-Hydroxybutyl)amino)-N-(7-(2-hydroxyphenyl)-3-oxoisoindolin-4-yl)benzamide]
30 | 1100 nM | CNCCN(C)c1ccc(C(=O)Nc2ccc(-c3ccccc3)c3c2C(=O)NC3)cc1 [Example 358, 4-(Methyl(2-(methylamino)ethyl)amino)-N-(3-oxo-7-phenylisoindolin-4-yl)benzamide]
31 | 170 nM | O=C(Nc1ccc(-c2cccc(F)c2F)c2c1C(=O)NC2)c1ccc(NCCN2CCOCC2)cc1 [Example 359, N-(7-(2,3-difluorophenyl)-3-oxoisoindolin-4-yl)-4-((2-morpholinoethyl)amino)benzamide]
32 | 320 nM | O=C(Nc1ccc(-c2ccccc2)c2c1C(=O)NC2)c1ccc(NCCN2CCCCC2)cc1 [Example 360, N-(3-oxo-7-phenylisoindolin-4-yl)-4-((2-(piperidin-1-yl)ethyl)amino)benzamide]
33 | 170 nM | COc1ccccc1-c1ccc(NC(=O)c2ccc(NCCN3CCCCC3)cc2)c2c1CNC2=O [Example 361, N-(7-(2-methoxyphenyl)-3-oxoisoindolin-4-yl)-4-((2-(piperidin-1-yl)ethyl)amino)benzamide]
34 | 490 nM | CN(C)CCNc1ccc(C(=O)Nc2ccc(-c3ccccc3)c3c2C(=O)NC3)cc1 [Example 362, 4-((2-(Dimethylamino)ethyl)amino)-N-(3-oxo-7-phenylisoindolin-4-yl)benzamide]
35 | 330 nM | O=C(Nc1ccc(-c2ccccc2)c2c1C(=O)NC2)c1ccc(NCCCN2CCCC2)cc1 [Example 363, N-(3-oxo-7-phenylisoindolin-4-yl)-4-((3-(pyrrolidin-1-yl)propyl)amino)benzamide]
36 | 180 nM | O=C(Nc1ccc(-c2cccc(F)c2F)c2c1C(=O)NC2)c1ccc(NCCN2CCCC2)cc1 [Example 364, N-(7-(2,3-difluorophenyl)-3-oxoisoindolin-4-yl)-4-((2-(pyrrolidin-1-yl)ethyl)amino)benzamide]
37 | 170 nM | O=C(Nc1ccc(-c2cccc(F)c2F)c2c1C(=O)NC2)c1ccc(NCCN2CCCC2)cc1 [Example 365, N-(7-(2,3-difluorophenyl)-3-oxoisoindolin-4-yl)-4-((2-(pyrrolidin-1-yl)ethyl)amino)benzamide hydrochloride]
38 | 170 nM | O=C(Nc1ccc(-c2cccc(F)c2F)c2c1C(=O)NC2)c1ccc(NCCCN2CCCC2)cc1 [Example 366, N-(7-(2,3-difluorophenyl)-3-oxoisoindolin-4-yl)-4-((3-(pyrrolidin-1-yl)propyl)amino)benzamide hydrochloride]
39 | 280 nM | CN(C)CCNc1ccc(C(=O)Nc2ccc(-c3cccc(F)c3F)c3c2C(=O)NC3)cc1 [Example 367, N-(7-(2,3-difluorophenyl)-3-oxoisoindolin-4-yl)-4-((2-(dimethylamino)ethyl)amino)benzamide]

From US9856216B2, “Compounds as TNIK, IKKε and TBK1 inhibitors and pharmaceutical composition comprising same” (GREEN CROSS CORPORATION, priority 2015, dated 2018)
